SMILES strings stand for the structures. The source made the active and inactive calls. The calls are words filed in the database; no cut-off is given here.

Broadly, the CC50 is the concentration that lowers cell viability or growth by half.

Data set [1] deals with Human immunodeficiency virus 1. In words: Antiviral activity against HIV1 3B infected in human CEM cells assessed as reduction in virus-induced cytopathicity after 4 to 5 days by microscopy based syncytium cell formation assay. Format: functional, organism-based, CCRF-CEM. The following applies: ccrf-cem. In general terms: Protection from cytopathic effect is a common read-out in antiviral testing.

Data set [2] deals with Human immunodeficiency virus 2. In words: Antiviral activity against HIV2 ROD infected in human CEM cells assessed as reduction in virus-induced cytopathicity after 4 to 5 days by microscopy based syncytium cell formation assay. The class given is functional, organism-based, ISOLATE ROD, CCRF-CEM. Particulars: ccrf-cem.
For another data set, the system named is Hepatitis C virus. Kind of data set: Antiviral activity against HCV genotype 1b I389luc-ubi-neo/NS3-3'/5.1 replicons infected in human Huh5-2 HCV subgenomic replicon-containing cells assessed as reduction in virus replication after 3 days by luciferase reporter gene assay. Format: functional, Hepacivirus hominis. Particulars: for EC90: Hepacivirus hominis. Background: In antiviral work, replicon cells carry a viral genome segment that copies itself.

Data set [3] in a line: Cytotoxicity against human CEM cells assessed as inhibition of cell proliferation. Format: cell-based. Particulars: CEM cells (CCRF-CEM).

With `O=C(NCCCCN(CCCNC(=O)c1ccc(OCc2ccccc2)c(OCc2ccccc2)c1OCc1ccccc1)C(=O)c1ccc(OCc2ccccc2)c(OCc2ccccc2)c1OCc1ccccc1)c1ccc(OCc2ccccc2)c(OCc2ccccc2)c1OCc1ccccc1`, the EC50 result (in data set [1]; in data set [2]; with Hepatitis C virus) was “Not Active” throughout. For the same molecule, in the data set on Hepatitis C virus, the EC90 result was “inactive”.
On to `O=C(NCCCCCCNC(=O)c1ccc(OCc2ccccc2)c(OCc2ccccc2)c1OCc1ccccc1)c1ccc(OCc2ccccc2)c(OCc2ccccc2)c1OCc1ccccc1`, for which the EC50 result (in data set [1]; in data set [2]; in the data set with Hepatitis C virus) was “Not Active” throughout. For the same molecule, in the data set on Hepatitis C virus, the EC90 result is “inactive”.
On to `O=C(NCCCCCCCCCCCCNC(=O)c1ccccc1OCc1ccccc1)c1ccccc1OCc1ccccc1`, for which the EC50 entry (in data set [1]; in data set [2]; in the data set on Hepatitis C virus) was “Not Active” throughout. Moreover, in the data set with Hepatitis C virus, the EC90 result is “inactive”.
As for `O=C(NCCNC(=O)c1ccccc1OCc1ccccc1)c1ccccc1OCc1ccccc1`, the EC50 result (in data set [1]; in data set [2]; in the data set on Hepatitis C virus) was “Not Active” throughout. In addition, the EC90 result with Hepatitis C virus was “inactive”.
Take `O=C(NCCCCNC(=O)c1ccccc1OCc1ccccc1)c1ccccc1OCc1ccccc1`: the EC50 entry (in data set [1]; in data set [2]; with Hepatitis C virus) was “Not Active” throughout. For the same molecule, the EC90 entry in the data set on Hepatitis C virus is “inactive”.
In the case of `COc1cccc(C(=O)NCCCCNC(=O)c2cccc(OC)c2OC)c1OC`, the EC50 result (in data set [1]; in data set [2]; in the data set with Hepatitis C virus) was “Not Active” each time. Further, the EC90 result in the data set on Hepatitis C virus was “inactive”.
`COc1cc(C(=O)NCCCCCCCCCCNC(=O)c2cc(OC)c(OC)c(OC)c2)cc(OC)c1OC`: the EC50 result (in data set [1]; in data set [2]; in the data set with Hepatitis C virus) was “Not Active” in each case. In addition, the EC90 result in the data set with Hepatitis C virus was “inactive”.
For the molecule `COc1cc(C(=O)NCCCCCCCCCCCCNC(=O)c2cc(OC)c(OC)c(OC)c2)cc(OC)c1OC`, the EC50 entry (in data set [1]; in data set [2]; in the data set on Hepatitis C virus) was “Not Active” throughout. For the same molecule, in the data set with Hepatitis C virus, the EC90 entry was “inactive”.
With `COc1cc(C(=O)NCCN(CCNC(=O)c2cc(OC)c(OC)c(OC)c2)C(=O)c2cc(OC)c(OC)c(OC)c2)cc(OC)c1OC`, the EC50 entry (in data set [1]; in data set [2]; with Hepatitis C virus) was “Not Active” in each case. In the data set with Hepatitis C virus, the EC90 result was “inactive”.
For `COc1cccc(C(=O)NCCCCCCCCCCCCNC(=O)c2cccc(OC)c2OC)c1OC`, the EC50 result (in data set [1]; in data set [2]; in the data set on Hepatitis C virus) was “Not Active” throughout. Moreover, the EC90 result in the data set on Hepatitis C virus was “inactive”.
Regarding `COc1cc(C(=O)NCCN(CCNC(=O)c2cc(OC)c(OC)c(OC)c2)CCNC(=O)c2cc(OC)c(OC)c(OC)c2)cc(OC)c1OC`, the EC50 result (in data set [1]; in data set [2]; in the data set with Hepatitis C virus) was “Not Active” each time. Further, in the data set on Hepatitis C virus, the EC90 result was “inactive”.
As to `COc1cc(C(=O)NCCCCN(CCCNC(=O)c2cc(OC)c(OC)c(OC)c2)C(=O)c2cc(OC)c(OC)c(OC)c2)cc(OC)c1OC`, the EC50 result (in data set [1]; in data set [2]; with Hepatitis C virus) was “Not Active” each time. Further, the EC90 entry in the data set with Hepatitis C virus is “inactive”.
With `COc1cc(C(=O)NCCCCCCNC(=O)c2cc(OC)c(OC)c(OC)c2)cc(OC)c1OC`, the EC50 result (in data set [1]; in data set [2]; in the data set on Hepatitis C virus) was “Not Active” in each case. Also, the EC90 entry in the data set on Hepatitis C virus is “inactive”.
Turning to `COc1cc(C(=O)NCCN(CCN(CCN(CCNC(=O)c2cc(OC)c(OC)c(OC)c2)C(=O)c2cc(OC)c(OC)c(OC)c2)C(=O)c2cc(OC)c(OC)c(OC)c2)C(=O)c2cc(OC)c(OC)c(OC)c2)cc(OC)c1OC`, the EC50 result (in data set [1]; in data set [2]; in the data set with Hepatitis C virus) was “Not Active” in each case. The EC90 result in the data set on Hepatitis C virus is “inactive”.
For the molecule `O=C(NCCCCCCCCCCCCNC(=O)c1ccc(OCc2ccccc2)c(OCc2ccccc2)c1OCc1ccccc1)c1ccc(OCc2ccccc2)c(OCc2ccccc2)c1OCc1ccccc1`, the EC50 result (in data set [1]; in data set [2]; in the data set with Hepatitis C virus) was “Not Active” throughout. In addition, the EC90 result in the data set with Hepatitis C virus is “inactive”.
`C[C@H](Cn1cnc2c(N)ncnc21)OCP(=O)(O)O` [TENOFOVIR ANHYDROUS]: the CC50 in data set [3] is > 100 µM.
`O=C(NCCCOCCOCCOCCCNC(=O)c1ccc(OCc2ccccc2)c(OCc2ccccc2)c1OCc1ccccc1)c1ccc(OCc2ccccc2)c(OCc2ccccc2)c1OCc1ccccc1`: the EC50 result (in data set [1]; in data set [2]; in the data set with Hepatitis C virus) was “Not Active” in each case. The EC90 entry with Hepatitis C virus was “inactive”.
Consider `COc1cccc(C(=O)NCCNC(=O)c2cccc(OC)c2OC)c1OC`, for which the EC50 entry (in data set [1]; in data set [2]; with Hepatitis C virus) was “Not Active” each time. Further, in the data set on Hepatitis C virus, the EC90 result was “inactive”.
As to `COc1cc(C(=O)NCCCCCCCCNC(=O)c2cc(OC)c(OC)c(OC)c2)cc(OC)c1OC`, the EC50 result (in data set [1]; in data set [2]; with Hepatitis C virus) was “Not Active” in each case. Further, the EC90 result in the data set with Hepatitis C virus was “inactive”.
For the molecule `COc1cc(C(=O)NCCCCNC(=O)c2cc(OC)c(OC)c(OC)c2)cc(OC)c1OC`, the EC50 entry (in data set [1]; in data set [2]; in the data set on Hepatitis C virus) was “Not Active” in each case. For the same molecule, the EC90 entry in the data set on Hepatitis C virus is “inactive”.
For `O=C(NCCCCNC(=O)c1ccc(OCc2ccccc2)c(OCc2ccccc2)c1OCc1ccccc1)c1ccc(OCc2ccccc2)c(OCc2ccccc2)c1OCc1ccccc1`, the EC50 result (in data set [1]; in data set [2]; in the data set on Hepatitis C virus) was “Not Active” each time. Besides, the EC90 entry in the data set with Hepatitis C virus is “inactive”.
Regarding `O=C(NCCN(CCNC(=O)c1ccc(OCc2ccccc2)c(OCc2ccccc2)c1OCc1ccccc1)CCNC(=O)c1ccc(OCc2ccccc2)c(OCc2ccccc2)c1OCc1ccccc1)c1ccc(OCc2ccccc2)c(OCc2ccccc2)c1OCc1ccccc1`, the EC50 result (in data set [1]; in data set [2]; with Hepatitis C virus) was “Not Active” in each case. In addition, in the data set with Hepatitis C virus, the EC90 entry is “inactive”.
`O=C(NCCCCCCCCNC(=O)c1ccc(OCc2ccccc2)c(OCc2ccccc2)c1OCc1ccccc1)c1ccc(OCc2ccccc2)c(OCc2ccccc2)c1OCc1ccccc1`: the EC50 entry (in data set [1]; in data set [2]; in the data set with Hepatitis C virus) was “Not Active” throughout. Also, in the data set on Hepatitis C virus, the EC90 result is “inactive”.
For `O=C(NCCCCCCCCCCNC(=O)c1ccc(OCc2ccccc2)c(OCc2ccccc2)c1OCc1ccccc1)c1ccc(OCc2ccccc2)c(OCc2ccccc2)c1OCc1ccccc1`, the EC50 entry (in data set [1]; in data set [2]; in the data set on Hepatitis C virus) was “Not Active” each time. In addition, the EC90 result in the data set on Hepatitis C virus was “inactive”.

(Values after ChEMBL document CHEMBL3407452, “Linear and branched alkyl-esters and amides of gallic acid and other (mono-, di- and tri-) hydroxy benzoyl derivatives as promising anti-HCV inhibitors” (Eur J Med Chem, 2015).)
